In PubChem BioAssay AID1918958 (Molecular Pharmacology Branch, DTP, NCI, 2023) one finds viability, T/C and IC50 data, which are given here for nine molecules.

This assay relates to NCI-H196 complex spheroid viability. Put plainly: Anticancer human tumor NCI-H196 cell line growth inhibition [LSD1].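 As to all read-outs here: spheroids exposed to agents for 7 days before readout.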 The following applies: for viability, T/C: stronger effect = lower value; for IC50: curve of compound. From the text: Multicellular complex tumor spheroid response to LSD1 Inhibitor Iadademstat in combination with a variety of drugs and investigational agents in selected tumor cell lines
The current study was undertaken to assess response to LSD1 inhibitors in combination with standard-of-care drugs and investigational agents in solid tumor complex spheroid models as well as in the K-562 leukemia. Complex spheroids include a stromal component modeled by human endothelial cells (HUVEC) and fibroblasts modeled by human mesenchymal stem cells (MSCs). The concentration ranges selected for each drug and investigational agent were based upon clinically achievable concentrations if the clinical Cmax of the agent was known.
Compounds. The drugs and investigational agents used in this study are listed on Table 1. All of the agents used, including staurosporine (NSC755774) and gemcitabine (NSC613327), were obtained from the Developmental Therapeutics Program, NCI. FDA-approved anticancer drugs are available from the NCI at http://dtp.nci.nih.gov/branches/dscb/oncology_drugset_explanation.html. Drugs and investigational agents were >95% pure by proton nuclear magnetic resonance (NMR) and liquid chromatography/mass spectrometry (LC/MS). Stock solutions were prepared at 400x in DMSO, stored at -70 degrees C, and diluted in fresh medium prior to their use. The final concentration of DMSO in cell culture wells never exceeded 0.25% (v/v). The FDA-approved anticancer drug set is available from the Developmental Therapeutics Program at https://dtp.cancer.gov/organization/dscb/obtaining/available_plates.htm. All drugs and investigational agents were tested over a range starting from a high concentration at or near the clinical Cmax and decreasing in half-log increments. If the clinical Cmax for an agent had not been determined, the highest concentration tested was 10 microM.
Cell Lines. The patient-derived cancer cell (PDC) lines: 292921-168-R-J2-PDC, K24384-001-R-PDC, and 521955-158-R2-J5-PDC pancreatic carcinomas, 556581-035-R-J1 ovarian carcinoma, 324938-238-R-J1-PDC, 855422-203-R-J1-PDC and 883617-216-R-J1-PDC urothelial bladder carcinomas, 743489-274-T-PDC renal cell carcinoma, 138582-R-J1 Merkel cell tumor, K60290-347-R-J1 and K57222-313-R-J1-PDC glioblastomas, 653999-131-R-J2-PDC, LG0703-F948-PDC, and 349418-098-R-PDC non-small cell lung carcinomas, 885512-296-R-J2-PDC, 171881-019-R-J1-PDC breast carcinomas and 186277-243-T-J2-PDC and 233499-124-R-J2-PDC colon carcinomas were obtained from the NCI Patient-Derived Models Repository (PDMR, https://pdmr.cancer.gov). The established cell lines NCI/ADR-RES (RRID:CVCL_14520 and OVCAR-5 (RRID:CVCL_1628) ovarian carcinomas, 786-O (RRID:CVCL_1051) and A498 (RRID:CVCL_A498) renal cell carcinoma, NCI-H211 (ATCC, cat. CRL-5824; RRID:CVCL_1529), NCI-H196 (ATCC, cat. CRL-5823, RRID:CVCL_1509), SW 1271 (ATCC, cat. CRL-2177, RRID:CVCL_1716) and NCI-H1876 (ATCC, cat. CRL-5902, RRID:CVCL_1503) small cell lung carcinomas, MDA-MB-231 (RRID:CVCL_0062) and MDA-MB-468 (RRID:CVCL_0419)breast carcinomas (10-12). Pooled donor human umbilical vein endothelial cells (HUVEC, Lonza, cat. CC-2519) and human mesenchymal stem cells (hMSC, Lonza, cat. PT-2501) were purchased from Lonza (Walkersville, MD).
Cell Culture. All cells were maintained in an incubator at 37 degrees C and 5% CO2 with 95% humidity. The PDC lines were cultured according to standard operating procedures established by the NCI PDMR (https://pdmr.cancer.gov). Briefly all PDCs were thawed and cultured in Matrigel-coated flasks prepared with a working solution of 1X Ham's F-12 nutrient mix, without supplementation (Invitrogen, Waltham, MA, cat. 11765054), 100 U/mL penicillin-streptomycin (Invitrogen, cat. 15140122), and 2.5% Matrigel (Corning Inc., Corning, NY, cat. 354248) for the first three passages. […]

SMILES strings stand for the structures. “And” between values parts separate entries of the source, which are not always exact repeats. Identical values can stand only once. Some results are limits rather than exact numbers.

By viability, T/C is commonly meant the result in the treated group divided by that in the control group, in per cent. One may read the IC50 as the concentration that inhibits the measured activity by half. In the case of `Cn1ncnc1C1c2n[nH]c(=O)c3cc(F)cc(c23)NC1c1ccc(F)cc1` (stereo not drawn), the IC50 was greater than 100 nM. For the same molecule, the viability, T/C (compound 0.000316 µM) was 107% and 97.8%. Besides, for the setting “compound 0.001 µM”, the viability, T/C is 104% and 106%. Moreover, where the note is “compound 0.00316 µM”, the viability, T/C was 99.1% and 105%. Moreover, the viability, T/C (compound 0.01 µM) is 101% and 100%. The viability, T/C (compound 0.0316 µM) was 96.3% and 98.4%. Also, under “compound 0.1 µM”, the viability, T/C is 96.8% and 95.6%.
In the case of `NS(=O)(=O)OCC1CC(n2ccc3c(NC4CCc5ccccc54)ncnc32)CC1O` (stereo not drawn), the IC50 is greater than 3000 nM. The viability, T/C (compound 0.00949 µM) was 109% and 80.7%. Further, the viability, T/C (compound 0.03 µM) was 94.8% and 79.4%. Further, the viability, T/C (compound 0.0949 µM) is 75.2% and 67.4%. For the same molecule, where the note is “compound 0.3 µM”, the viability, T/C is 83.8% and 77.4%. Under “compound 0.949 µM”, the viability, T/C was 79.3% and 74.5%. Further, the viability, T/C (compound 3 µM) is 67.7% and 66.8%.
With `Nc1ccccc1NC(=O)c1ccc(CNC(=O)OCc2cccnc2)cc1`, the 50% inhibitory concentration (IC50) was 63.2 nM and 65.4 nM. Where the note is “compound 0.00949 µM”, the viability, T/C is 81.1% and 83.5%. The viability, T/C (compound 0.03 µM) is 65.5% and 73%. In addition, the viability, T/C (compound 0.0949 µM) is 42.2% and 39%. Also, under “compound 0.3 µM”, the viability, T/C was 13.3% and 8.4%. The viability, T/C (compound 0.949 µM) is 0.4% and 0.47%. Also, the viability, T/C (compound 3 µM) is 1.02% and 0.51%.
Regarding `Nc1ccn(C2OC(CO)C(O)C2(F)F)c(=O)n1` (stereo not drawn), the IC50 was greater than 300 nM. For the same molecule, under “compound 0.000949 µM”, the viability, T/C was 98.3% and 103%. The viability, T/C (compound 0.003 µM) is 95.8% and 101%. The viability, T/C (compound 0.00949 µM) was 97.9% and 81.6%. Also, where the note is “compound 0.03 µM”, the viability, T/C is 66.4% and 65.5%. Moreover, the viability, T/C (compound 0.0949 µM) was 68.4% and 66.2%. In addition, the viability, T/C (compound 0.3 µM) is 63.8%.
Consider `Nc1ncn(C2CC(O)C(CO)O2)c(=O)n1` (stereo not drawn), for which the IC50 was greater than 1000 nM. The viability, T/C (compound 0.00316 µM) was 106% and 105%. Further, the viability, T/C (compound 0.01 µM) was 92.3% and 102%. In addition, the viability, T/C (compound 0.0316 µM) is 95.5% and 99.8%. Moreover, the viability, T/C (compound 0.1 µM) is 101% and 103%. Also, the viability, T/C (compound 0.316 µM) is 100% and 102%. For the same molecule, where the note is “compound 1 µM”, the viability, T/C is 93.5% and 97.9%.
In the case of `Nc1ncn(C2CC(O)C(CO)S2)c(=O)n1` (stereo not drawn), the IC50 is greater than 300 nM. In addition, for the setting “compound 0.000949 µM”, the viability, T/C was 96.8% and 102%. The viability, T/C (compound 0.003 µM) is 105% and 111%. Besides, under “compound 0.00949 µM”, the viability, T/C is 103% and 106%. Further, under “compound 0.03 µM”, the viability, T/C was 106% and 111%. Further, the viability, T/C (compound 0.0949 µM) is 111% and 116%. For the same molecule, the viability, T/C (compound 0.3 µM) was 100% and 104%.
For the molecule `O=C(C=Cc1cccc(S(=O)(=O)Nc2ccccc2)c1)NO`, the concentration for half-maximal inhibition (IC50) was 155 nM and 119 nM. For the same molecule, the viability, T/C (compound 0.00949 µM) is 107% and 99.7%. For the same molecule, where the note is “compound 0.03 µM”, the viability, T/C was 103% and 104%. For the setting “compound 0.0949 µM”, the viability, T/C was 70.1% and 56.7%. The viability, T/C (compound 0.3 µM) is 22.9% and 15%. In addition, the viability, T/C (compound 0.949 µM) is 0.4%. For the same molecule, the viability, T/C (compound 3 µM) was 0.41% and 0.39%.
For `O=C(C=Cn1cnc(-c2cc(C(F)(F)F)cc(C(F)(F)F)c2)n1)NNc1cnccn1`, the IC50 was less than 3.16 nM. Moreover, the viability, T/C (compound 0.00316 µM) is 28.4% and 33.1%. Moreover, the viability, T/C (compound 0.01 µM) is 31% and 30.9%. Also, the viability, T/C (compound 0.0316 µM) was 19.2% and 19.6%. In addition, the viability, T/C (compound 0.1 µM) is 17.7% and 14.5%. The viability, T/C (compound 0.316 µM) is 13.8% and 10.2%. Besides, the viability, T/C (compound 1 µM) was 7.27% and 6.31%.
As for `O=C(c1cc(Cc2n[nH]c(=O)c3ccccc23)ccc1F)N1CCN(C(=O)C2CC2)CC1`, the IC50 was greater than 10000 nM. Besides, the viability, T/C (compound 0.0316 µM) was 91.2% and 89.6%. Further, where the note is “compound 0.1 µM”, the viability, T/C is 93.7% and 93.2%. The viability, T/C (compound 0.316 µM) is 91.9% and 90%. The viability, T/C (compound 1 µM) was 94% and 84.9%. In addition, the viability, T/C (compound 3.16 µM) was 89.9% and 91.9%. In addition, the viability, T/C (compound 10 µM) was 95.3% and 95.9%.
